Data taken from ChEMBL document CHEMBL1201862, “PubChem BioAssay data set” (2004).
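Cultured in 96-well plates, cells were exposed to test compound for 48 hours across five concentrations. GI50 marks 50% less growth.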 Activity calls are given as the source filed them. Cut-off read from the data, not from the text of the source: active = GI50 up to about 1.1 µM and inactive = higher.

Assays:
Assay in all cases: NCI tumour cell line growth inhibition, 48 h
HOP-92 = system: HOP-92
RXF 393 = system: RXF 393
SK-MEL-5 = system: SK-MEL-5
M14 = system: M14
NCI-H23 = system: NCI-H23
HOP-62 = system: HOP-62
DU-145 = system: DU-145
SN12C = system: SN12C
UACC-257 = system: UACC-257
NCI-H522 = system: NCI-H522
KM12 = system: KM12
HCT-116 = system: HCT-116
T47D = system: T47D
SF-295 = system: SF-295
K562 = system: K562
U-251 = system: U-251
LOX IMVI = system: LOX IMVI
Hs-578T = system: Hs-578T
A498 = system: A498
BT-549 = system: BT-549

| Structure (SMILES) | GI50 (HOP-92) | GI50 (RXF 393) | GI50 (SK-MEL-5) | GI50 (M14) | GI50 (NCI-H23) | GI50 (HOP-62) | GI50 (DU-145) | GI50 (SN12C) | GI50 (UACC-257) | GI50 (NCI-H522) | GI50 (KM12) | GI50 (HCT-116) | GI50 (T47D) | GI50 (SF-295) | GI50 (K562) | GI50 (U-251) | GI50 (LOX IMVI) | GI50 (Hs-578T) | GI50 (A498) | GI50 (BT-549) |
| --- | --- | --- | --- | --- | --- | --- | --- | --- | --- | --- | --- | --- | --- | --- | --- | --- | --- | --- | --- | --- |
| COc1cc(O)c2c(c1)OCC(Cc1ccc(O)cc1)C2=O (centres undefined) | 37.9 µM (inactive) | 21.1 µM (inactive) | 44.4 µM (inactive) | > 100 µM (inactive) | > 100 µM (inactive) | > 100 µM (inactive) | > 100 µM (inactive) | > 100 µM (inactive) | > 100 µM (inactive) | > 100 µM (inactive) | > 100 µM (inactive) | > 100 µM (inactive) | 45.4 µM (inactive) | 51.1 µM (inactive) | > 100 µM (inactive) | > 100 µM (inactive) | > 100 µM (inactive) | 45.7 µM (inactive) | 36.1 µM (inactive) |  |
| COCCCCCC(=O)CP(=O)(OC)OC | > 100 µM (inactive) | > 100 µM (inactive) | > 100 µM (inactive) | > 100 µM (inactive) | > 100 µM (inactive) | > 100 µM (inactive) |  | > 100 µM (inactive) | > 100 µM (inactive) | > 100 µM (inactive) | > 100 µM (inactive) | > 100 µM (inactive) |  | > 100 µM (inactive) | > 100 µM (inactive) | > 100 µM (inactive) | > 100 µM (inactive) |  | > 100 µM (inactive) |  |
| Clc1ccc(Nc2nnc(CCCCCCCCc3nnc(Nc4ccc(Cl)cc4)o3)o2)cc1 | 23.8 µM (inactive) |  | 23.1 µM (inactive) | 36 µM (inactive) | 27.6 µM (inactive) | 37.9 µM (inactive) | 25.5 µM (inactive) | 45.7 µM (inactive) | 37.4 µM (inactive) | 21.5 µM (inactive) | 23.4 µM (inactive) | 17.3 µM (inactive) |  | 35.8 µM (inactive) | 7.35 µM (inactive) | 38.3 µM (inactive) |  |  | 37.1 µM (inactive) | 31.9 µM (inactive) |
| Fc1sc2c(c1F)C1CCC2C1 (centres undefined) | > 100 µM (inactive) | 88.1 µM (inactive) | > 100 µM (inactive) | > 100 µM (inactive) | 58.3 µM (inactive) | > 100 µM (inactive) | 85.7 µM (inactive) | > 100 µM (inactive) | 40.9 µM (inactive) | > 100 µM (inactive) | > 100 µM (inactive) | 48.8 µM (inactive) | 88.3 µM (inactive) | > 100 µM (inactive) |  | 97.7 µM (inactive) | 42.5 µM (inactive) | 19.7 µM (inactive) | > 100 µM (inactive) |  |
| O=C(CCc1nnc2s/c(=C\c3ccccc3)c(=O)n12)Nc1cc(Cl)ccc1Cl | > 100 µM (inactive) | > 100 µM (inactive) | > 100 µM (inactive) | > 100 µM (inactive) | > 100 µM (inactive) | > 100 µM (inactive) |  | > 100 µM (inactive) | > 100 µM (inactive) | > 100 µM (inactive) | > 100 µM (inactive) | 24 µM (inactive) |  | > 100 µM (inactive) | > 100 µM (inactive) | > 100 µM (inactive) | > 100 µM (inactive) |  | > 100 µM (inactive) |  |
| CN(C)c1ccc(/C=c2\sc3nc4ccccc4n3c2=O)cc1 | > 100 µM (inactive) | 77.6 µM (inactive) | > 100 µM (inactive) | > 100 µM (inactive) | > 100 µM (inactive) | > 100 µM (inactive) |  | > 100 µM (inactive) | > 100 µM (inactive) | > 100 µM (inactive) | > 100 µM (inactive) | > 100 µM (inactive) |  | > 100 µM (inactive) | > 100 µM (inactive) | > 100 µM (inactive) | > 100 µM (inactive) |  | > 100 µM (inactive) |  |
| COc1cc2c[n+]3c4c(c2c(OC)c1OC)CCCC4CC3 (centres undefined) | > 100 µM (inactive) | > 100 µM (inactive) | 19.3 µM (inactive) | > 100 µM (inactive) | 34.8 µM (inactive) | > 100 µM (inactive) | > 100 µM (inactive) |  | 35.6 µM (inactive) | 30.8 µM (inactive) | 30.1 µM (inactive) | > 100 µM (inactive) | 27.9 µM (inactive) | > 100 µM (inactive) | 62.4 µM (inactive) | 17 µM (inactive) |  | 9.2 µM (inactive) | > 100 µM (inactive) |  |
| CCCCCCCCCCCCCCCCOC(=O)C(C(=O)OCCCCCCCCCCCCCCCC)[N+](C)(C)CCOC(C)=O | 2.85 µM (inactive) | 2.99 µM (inactive) | 19.7 µM (inactive) | 19.7 µM (inactive) | 14.6 µM (inactive) | 10.9 µM (inactive) |  | 18.4 µM (inactive) | 19.1 µM (inactive) | 5.16 µM (inactive) | 13.7 µM (inactive) | 16.4 µM (inactive) |  | 18.1 µM (inactive) | 19.5 µM (inactive) | 12 µM (inactive) | 21.8 µM (inactive) |  | 23.6 µM (inactive) |  |
| CCSC1(SCC)CC(Cc2ccc(OC)cc2)N(/C=N/C(C)(C)C)C1 (centres undefined) | 0.321 µM (active) | 11.5 µM (inactive) | 16.4 µM (inactive) | 14.7 µM (inactive) | 18.7 µM (inactive) | 56.9 µM (inactive) |  | 25 µM (inactive) | 20.2 µM (inactive) | 15 µM (inactive) | 25.9 µM (inactive) | 20.9 µM (inactive) |  | 15.1 µM (inactive) | 17.8 µM (inactive) | 19.1 µM (inactive) | 15.1 µM (inactive) |  | 33.6 µM (inactive) |  |
| CCCCC1(OC(=O)CCC(=O)O)CCC2(CCC(C)C(C/C=C(C)/C=C/C(O)C(C)/C=C/C(=O)O)O2)OC1CC/C(C)=C/C(=O)O (centres undefined) | 1.67 µM (inactive) | 1.75 µM (inactive) | 1.61 µM (inactive) | 1.92 µM (inactive) | 0.535 µM (active) | 2.09 µM (inactive) |  | 2.77 µM (inactive) | 1.55 µM (inactive) | 2.77 µM (inactive) | 3.1 µM (inactive) | 6.19 µM (inactive) |  | 4.57 µM (inactive) | 2.8 µM (inactive) | 4.35 µM (inactive) | 1.66 µM (inactive) |  | 3.26 µM (inactive) |  |
| Cc1cc(Cl)cc2c1NC(=O)C2=O.O=C(c1ccccc1)C(F)(F)F | 52.6 µM (inactive) | 73.3 µM (inactive) | 41.7 µM (inactive) | 67 µM (inactive) | > 100 µM (inactive) | > 100 µM (inactive) |  | 54 µM (inactive) | 27.5 µM (inactive) | 24.7 µM (inactive) | 61 µM (inactive) | 59.8 µM (inactive) |  | 56.2 µM (inactive) | 32.4 µM (inactive) | 85.9 µM (inactive) | 15.3 µM (inactive) |  | > 100 µM (inactive) |  |
| CC(C)=CCC/C(C)=C/CC/C(C)=C/CC/C=C(\C)CC/C=C(\C)CCC1SC1(C)C (centres undefined) | 64 µM (inactive) | > 100 µM (inactive) | > 100 µM (inactive) | > 100 µM (inactive) | > 100 µM (inactive) | > 100 µM (inactive) |  | > 100 µM (inactive) | > 100 µM (inactive) | > 100 µM (inactive) | > 100 µM (inactive) | > 100 µM (inactive) |  | > 100 µM (inactive) | > 100 µM (inactive) | > 100 µM (inactive) | > 100 µM (inactive) |  | > 100 µM (inactive) |  |
| N#CC12CC3(CCC1CCC1(C2)OCCO1)OCCO3 (centres undefined) | > 100 µM (inactive) | > 100 µM (inactive) | > 100 µM (inactive) | > 100 µM (inactive) | > 100 µM (inactive) | > 100 µM (inactive) |  | > 100 µM (inactive) | > 100 µM (inactive) | > 100 µM (inactive) | > 100 µM (inactive) | > 100 µM (inactive) |  | > 100 µM (inactive) | > 100 µM (inactive) | > 100 µM (inactive) | > 100 µM (inactive) |  | > 100 µM (inactive) |  |
| COC(=O)[C@@H]1C(=O)O[C@@H](c2ccc3c(c2)OCO3)[C@@H]1C(=O)OC.COC(=O)[C@H]1C(=O)O[C@@H](c2ccc3c(c2)OCO3)[C@@H]1C(=O)OC | 43.8 µM (inactive) | > 100 µM (inactive) | > 100 µM (inactive) | > 100 µM (inactive) | > 100 µM (inactive) | > 100 µM (inactive) |  | > 100 µM (inactive) | > 100 µM (inactive) | > 100 µM (inactive) | > 100 µM (inactive) | > 100 µM (inactive) |  | > 100 µM (inactive) | > 100 µM (inactive) | > 100 µM (inactive) | > 100 µM (inactive) |  | > 100 µM (inactive) |  |
| [BH3-][P+]1(CC[P@@+]([BH3-])(c2ccccc2)c2ccccc2OC)[C@@H](C)[C@@H](O)[C@H](O)[C@@H]1C (some centres undefined) | 16.6 µM (inactive) | 16.4 µM (inactive) | 15.7 µM (inactive) | 16.7 µM (inactive) | 16 µM (inactive) | 16.9 µM (inactive) | 17.3 µM (inactive) | 13.4 µM (inactive) | 4.19 µM (inactive) | 12.4 µM (inactive) | 15.8 µM (inactive) | 17.7 µM (inactive) | 15.9 µM (inactive) | 15.8 µM (inactive) | 26.1 µM (inactive) | 16.9 µM (inactive) | 2.44 µM (inactive) | 10.3 µM (inactive) | 18 µM (inactive) |  |
| Cn1c(=O)c2nc[nH]c2n(C)c1=O [THEOPHYLLINE] | > 100 µM (inactive) |  | > 100 µM (inactive) | > 100 µM (inactive) | > 100 µM (inactive) | > 100 µM (inactive) | > 100 µM (inactive) | > 100 µM (inactive) | > 100 µM (inactive) | > 100 µM (inactive) | > 100 µM (inactive) | > 100 µM (inactive) | > 100 µM (inactive) |  | > 100 µM (inactive) |  | > 100 µM (inactive) | > 100 µM (inactive) |  |  |
